# What was measured:
# [1] = tested on: BALB/c mice; assay: Acute toxicity study; assay type: in vivo; settings: symbols O/X not defined
# Description: (§1) All mice care and experimental protocols were approved by the Ethical Committee of Tianjin Medical University (permit number: TMUaMEC 2023036). Preliminary testing was conducted on 6 groups of BALB/c mice (half male, half female, 18–22 g), fasted but not water-deprived for 12 h, and administered different doses of KTC1101 (200 to 6400 mg/kg). […] The LD50 was calculated based on the doses causing 0% and 100% mortality in animals. Subsequent testing was done using doses determined from the preliminary study. Each dose was administered to a single animal, with a 72-h interval between dosages. The administration continued until one of the following criteria was met: (a) three consecutive animals survived; (b) a transition from survival to death occurred in 5 out of 6 consecutive animals; (c) at least four animals were tested after the first transition, with an estimated LD50 range exceeding the critical value (2.5 times). The LD50 and its confidence interval were calculated, and the maximum likelihood method was used to determine the LD50 value using the AOT425StatPgm software.
# [2] = Acute toxicity study; assay type: in vivo; settings: both sexes, mouse, in vivo, oral; BALB/c mice, acute toxicity
# Description: as §1
# [3] = tested on: p-Akt, p-S6, Ki67; assay: H&E and immunohistochemical staining of xenograft tumors; assay type: in vivo, mouse; settings: IHC, PC3 and TMD8 xenografts
# Description: H&E and IHC staining were performed as previously described. H&E staining was used to detect pathological changes in morphology. For histological analysis, formalin-fixed, paraffin-embedded tumors were sectioned, and slides were deparaffinized using xylene (Thermo Fisher). Endogenous peroxidases were quenched with 3% hydrogen peroxide in methanol. Staining was performed using antibodies against phosphorylated Akt (Ser473), phosphorylated S6 (Ser235/236), or Ki67. Counterstaining was performed with Mayer’s hematoxylin (Dako). Slides were observed under an Olympus CX21 microscope and scanned with a high-resolution digital slide scanner (Pannoramic 250, 3DHistech) to capture images.
# [4] = tested on: OVCAR-8; assay: JFCR39 sulforhodamine B growth assay; assay type: cell-based; settings: Homo sapiens, OVCAR-8, 48 h
# Description: (§2) JFCR39 drug discovery system was used to measure the growth inhibitory activities and identify the target of KTC1101. The JFCR39 panel consists of 39 cell lines seeded in 96-well plates. After 48-h treatment with KTC1101, cell growth was measured using the sulforhodamine B assay. […] The deviation of log GI50 for each cell line from the average log GI50 across the JFCR39 panel was plotted as a fingerprint. MG-MID (mean of Log GI50 values) represents the average log GI50 for all 39 cell lines. The most sensitive and least sensitive cell lines were identified by calculating the difference in their log GI50 values (Range) and the difference between the most sensitive cell line and the average GI50 on the JFCR39 panel (Delta). The fingerprint of KTC1101 was compared with the fingerprints of reference compounds in the database. The Pearson correlation coefficient (r) was calculated (n = 39).
# [5] = tested on: KM-12; assay: JFCR39 sulforhodamine B growth assay; assay type: cell-based; settings: Homo sapiens, KM12; KM-12, 48 h
# Description: as §2
# [6] = tested on: BSY-1; assay: JFCR39 sulforhodamine B growth assay; assay type: cell-based; settings: Homo sapiens, BSY-1, 48 h
# Description: as §2
# [7] = tested on: HCC2998; assay: JFCR39 sulforhodamine B growth assay; assay type: cell-based; settings: Homo sapiens, HCC 2998; HCC2998, 48 h
# Description: as §2
# [8] = tested on: NCI-H522; assay: JFCR39 sulforhodamine B growth assay; assay type: cell-based; settings: Homo sapiens, NCI-H522, 48 h
# Description: as §2
# [9] = tested on: LOX-IMVI; assay: JFCR39 sulforhodamine B growth assay; assay type: cell-based; settings: Homo sapiens, 48 h
# Description: as §2
# [10] = tested on: SF-539; assay: JFCR39 sulforhodamine B growth assay; assay type: cell-based; settings: Homo sapiens, SF-539, 48 h
# Description: as §2
# [11] = tested on: SNB-78; assay: JFCR39 sulforhodamine B growth assay; assay type: cell-based; settings: Homo sapiens, SNB-78, 48 h
# Description: as §2
# [12] = tested on: A549; assay: JFCR39 sulforhodamine B growth assay; assay type: cell-based; settings: Homo sapiens, A549, 48 h
# Description: as §2
# [13] = tested on: MKN45; assay: JFCR39 sulforhodamine B growth assay; assay type: cell-based; settings: Homo sapiens, MKN-45; MKN45, 48 h
# Description: as §2
# [14] = tested on: SF-268; assay: JFCR39 sulforhodamine B growth assay; assay type: cell-based; settings: Homo sapiens, SF-268, 48 h
# Description: as §2
# [15] = tested on: HBC-4; assay: JFCR39 sulforhodamine B growth assay; assay type: cell-based; settings: Homo sapiens, HBC4; HBC-4, 48 h
# Description: as §2
# [16] = tested on: HCT-15; assay: JFCR39 sulforhodamine B growth assay; assay type: cell-based; settings: Homo sapiens, HCT-15, 48 h
# Description: as §2
# [17] = tested on: DMS114; assay: JFCR39 sulforhodamine B growth assay; assay type: cell-based; settings: Homo sapiens, DMS-114; DMS114, 48 h
# Description: as §2
# [18] = tested on: NCI-H23; assay: JFCR39 sulforhodamine B growth assay; assay type: cell-based; settings: Homo sapiens, NCI-H23, 48 h
# Description: as §2
# [19] = tested on: U251; assay: JFCR39 sulforhodamine B growth assay; assay type: cell-based; settings: Homo sapiens, U-251; U251, 48 h
# Description: as §2
# [20] = tested on: MCF-7; assay: JFCR39 sulforhodamine B growth assay; assay type: cell-based; settings: Homo sapiens, MCF7; MCF-7, 48 h
# Description: as §2
# [21] = tested on: OVCAR-4; assay: JFCR39 sulforhodamine B growth assay; assay type: cell-based; settings: Homo sapiens, OVCAR-4, 48 h
# Description: as §2
# [22] = tested on: NCI-H460; assay: JFCR39 sulforhodamine B growth assay; assay type: cell-based; settings: Homo sapiens, NCI-H460, 48 h
# Description: as §2
# [23] = tested on: St-4; assay: JFCR39 sulforhodamine B growth assay; assay type: cell-based; settings: Homo sapiens, St-4, 48 h
# Description: as §2
# [24] = tested on: MKN74; assay: JFCR39 sulforhodamine B growth assay; assay type: cell-based; settings: Homo sapiens, MKN-74; MKN74, 48 h
# Description: as §2
# [25] = tested on: OVCAR-3; assay: JFCR39 sulforhodamine B growth assay; assay type: cell-based; settings: Homo sapiens, OVCAR-3, 48 h
# Description: as §2
# [26] = tested on: MKN-B; assay: JFCR39 sulforhodamine B growth assay; assay type: cell-based; settings: Homo sapiens, 48 h
# Description: as §2
smiles,measurement,setting,value
"COc1cc(N)cc2c1nc(C(F)F)n2-c1nc(N2CCCOCC2)nc(N2CCOCC2)n1 [KTC1101, 2-(difluoromethyl)-4-methoxy-1-(4-morpholino-6-(1,4-oxazepan-4-yl)-1,3,5-triazin-2-yl)-1H-benzo[d]imidazol-6-amine]",Score,[1]; real dose 1750 mg/kg,OOO
same,Score,[1]; real dose 2275 mg/kg,XXX
same,LD50 at 7 days,[2],2140 mg/kg
same,Ki67 expression in tumor tissues,[3],notable reduction in Ki67 expression
same,phosphorylation of AKT in tumor tissues,[3],decreased phosphorylation of AKT
same,GI50,[4],30.9 nM
same,GI50,[5],178 nM
same,GI50,[6],10 nM
same,GI50,[7],36.3 nM
same,GI50,[8],10 nM
same,GI50,[9],17.4 nM
same,GI50,[10],10 nM
same,GI50,[11],22.9 nM
same,GI50,[12],21.9 nM
same,GI50,[13],162 nM
same,GI50,[14],18.2 nM
same,GI50,[15],24.5 nM
same,GI50,[16],17.8 nM
same,GI50,[17],10 nM
same,GI50,[18],25.7 nM
same,GI50,[19],38 nM
same,GI50,[20],10 nM
same,GI50,[21],61.7 nM
same,GI50,[22],10 nM
same,GI50,[23],105 nM
same,GI50,[24],70.8 nM
same,GI50,[25],15.8 nM
same,GI50,[26],28.8 nM

# Source: paper PMC10938783, “A novel pan-PI3K inhibitor KTC1101 synergizes with anti-PD-1 therapy by targeting tumor suppression and immune activation” (Molecular Cancer, 2024)
